Test results reported in article PMC11285948, “The effects of CYP2B6 inactivators on the metabolism of ciprofol” (PLOS ONE, 2024).
Values joined by “and” are separate entries in the source; they are usually repeats but may differ in a detail not shown here. Equal entries are not always repeated. Where two headings read alike, the source gives them in different places.

What was measured:
[1] = clinical trials; cited from earlier work
[2] = tested on: typical substrates of CYP1A2, CYP2B6, and CYP2C19; settings: IVIVE and PBPK simulations; ref Hou et al. 9; cited from earlier work
[3] = Stability of ciprofol QC samples in liver microsome incubation system; assay type: physicochemical; settings: liver microsomes; for ciprofol found after storage, Autosampler / ciprofol found after storage, Room Temperature: n = 5; for Stability: calculated concentration: single replicates
Protocol: The incubation system was removed from the water bath, and the reaction was terminated immediately by adding 800 μL of reaction termination solution (acetonitrile solution containing 5 μg·mL^-1 D6-ciprofol at 4°C). The mixture was vortexed for 2 min and centrifuged for 15 min, after which the supernatant was transferred to an autosampler vial for HPLC-MS/MS detection.
To investigate the stability of ciprofol under a variety of conditions, three groups of liver microsome QC sample solutions were prepared, and one group was immediately processed and analysed as described in Section 2.4.2. Another group was stored at room temperature for 8 hours before treatment and assessment. The other group was treated and placed in the autosampler (4°C) for 24 h and subsequently analysed. In addition, simulated plasma QC samples were prepared in five groups: one group was processed and measured immediately as described in Section 2.4.3, and another group was placed in the autosampler for 24 h after treatment. The other three groups were placed at room temperature for 8 h, stored at -40°C for 30 d, frozen and thawed three times, respectively, and then processed and detected as described in Section 2.4.3. All the above samples were tested in parallel in five batches.

[4] = Pharmacokinetics of ciprofol in rats pretreated with psoralen, clopidogrel or CMC; assay type: in vivo, rat; settings: ciprofol 2.4 mg·kg^-1 i.v.; for clearance / AUC(0-inf) / AUC(0-t) / Cmax / MRT last / MRT inf / Vd / half-life: SD, rat, plasma; for MRT last: read-out: MRT0-t; for MRT inf: read-out: MRT0-∞; for Vd: read-out: Vd; for half-life: read-out: t1/2 (converted)
Protocol: 5 μL of IS solution (2.5 μg·mL^-1 D6-ciprofol) was added to 100 μL of plasma and mixed. Then, 300 μL of acetonitrile was added. The mixture was vortexed for 2 min and centrifuged for 10 min, and the supernatant was transferred to an autosampler vial for HPLC-MS/MS detection.
Twenty-four SD rats were randomly and equally divided into three groups: the control group, psoralen group and clopidogrel group. The administration scheme was as follows: the control group received 0.5% carboxy methyl cellulose by gavage (1 mL·200 g^-1), the psoralen group received 27 mg·kg^-1 psoralen by gavage, and the clopidogrel group was gavaged with 7.5 mg·kg^-1 clopidogrel. […] All rats were treated once daily for seven days. Each rat was injected with 2.4 mg·kg^-1 ciprofol via the tail vein 12 h after the end of dosing on Day 7. Rats that received ciprofol injection were placed on a flat and soft insulation pad. Timekeeping began when the rats were in the supine position and lost the righting reflex and ended when the rats could turn to the prone position successfully. The duration of loss of righting reflex (LORR) in each rat was measured. During this period, approximately 300 μL of blood was collected from the inner canthus at 2, 4, 8, 12, 16, 20, 30, 45, and 60 min after ciprofol administration, and the plasma was separated. The plasma was processed and measured as described in Section 2.4.3, and DAS 2.0 software and a noncompartmental model were used to analyse the pharmacokinetic parameters.
IBM SPSS Statistics 27 software was used to analyse the main pharmacokinetic parameters, and GraphPad Prism 8.0.2 software was used for graphical visualization. One-way ANOVA was used, and multiple comparisons were performed using the least significant difference (LSD)-T test, for which P < 0.05 indicated a significant difference.

[5] = Autosampler for 24 h, QC level H
[6] = Autosampler for 24 h, QC level L
[7] = Autosampler for 24 h, QC level M
[8] = Room - Temperature for 8 h, QC level H
[9] = Room - Temperature for 8 h, QC level L
[10] = Room - Temperature for 8 h, QC level M
[11] = intravenous, 2.4 mg/kg, rats, Clopidogrel group (7.5 mg·kg^-1 gavage daily 7 d), n = 8
[12] = intravenous, 2.4 mg/kg, rats, Control group (0.5% CMC gavage 7 d), n = 8
[13] = intravenous, 2.4 mg/kg, rats, Psoralen group (27 mg·kg^-1 gavage daily 7 d), n = 8

For `CC(C)c1cccc([C@H](C)C2CC2)c1O` [ciprofol], the “incidence of pain on injection relative to that caused by propofol” value [1] is listed as 1/10, the “predicted drug-drug interactions with typical substrates of CYP1A2, CYP2B6, and CYP2C19” value [2] is listed as “did not cause drug‒drug interactions” and the “ciprofol found after storage, Autosampler” value (“ciprofol found … Autosampler” below) ([3]; QC 2.5 μg·mL^-1, autosampler (4°C) for 24 h after treatment) is listed as 2.54 ± 0.11 µg/mL. The “ciprofol found after storage, Room Temperature” value ([3]; QC 2.5 μg·mL^-1, room temperature for 8 h) was 2.53 ± 0.19 µg/mL, the “ciprofol found … Autosampler” value ([3]; QC 10 μg·mL^-1, autosampler (4°C) for 24 h after treatment) was 9.82 ± 0.44 µg/mL and the “ciprofol found after storage, Room Temperature” value ([3]; QC 10 μg·mL^-1, room temperature for 8 h) was 10.14 ± 0.62 µg/mL. For the same compound, the “ciprofol found … Autosampler” value ([3]; QC 75 μg·mL^-1, autosampler (4°C) for 24 h after treatment) was 72.07 ± 4.83 µg/mL, the “ciprofol found after storage, Room Temperature” value ([3]; QC 75 μg·mL^-1, room temperature for 8 h) was 70.43 ± 3.12 µg/mL and the “Stability: mean calculated concentration” value [3, 5] was 72.07 µg/mL. For the same compound, the “Stability: calculated concentration” value [3, 5] was 64.85 µg/mL and 72.55 µg/mL and 71.79 µg/mL and 72.70 µg/mL and 78.45 µg/mL, the “Stability: mean calculated concentration” value [3, 6] was 2.54 µg/mL and the “Stability: calculated concentration” value [3, 6] was 2.73 µg/mL and 2.56 µg/mL and 2.49 µg/mL and 2.50 µg/mL and 2.43 µg/mL. For the same compound, the “Stability: mean calculated concentration” value [3, 7] was 9.82 µg/mL, the “Stability: calculated concentration” value [3, 7] was 9.08 µg/mL and 9.88 µg/mL and 10.27 µg/mL and 9.89 µg/mL and 9.96 µg/mL and the “Stability: mean calculated concentration” value [3, 8] was 70.43 µg/mL. The “Stability: calculated concentration” value [3, 8] was 71.38 µg/mL and 72.99 µg/mL and 69.04 µg/mL and 65.67 µg/mL and 73.05 µg/mL, the “Stability: mean calculated concentration” value [3, 9] was 2.53 µg/mL and the “Stability: calculated concentration” value [3, 9] was 2.63 µg/mL and 2.49 µg/mL and 2.51 µg/mL and 2.26 µg/mL and 2.77 µg/mL. For the same compound, the “Stability: mean calculated concentration” value [3, 10] was 10.15 µg/mL, the “Stability: calculated concentration” value [3, 10] was 9.80 µg/mL and 9.76 µg/mL and 10.83 µg/mL and 10.81 µg/mL and 9.53 µg/mL and the Tmax ([4]; Control (CMC-Na), rats No.1-8 and Mean) was 2.00 min. The Tmax ([4]; Psoralen(27mg/kg)group, rats No.1-8 and Mean) was 2.00 min, the CLz ([4]; Psoralen(27mg/kg)group, rats No.1-8 and Mean, 27 mg/kg) was 140 mL/min/kg and 120 mL/min/kg and 130 mL/min/kg and the clearance ([4]; Psoralen(27mg/kg)group, rats No.1-8 and Mean, read-out: CLz) was 130 mL/min/kg. It also gave an AUC(0-inf) [4, 11] of 318 ± 45 ng·h/mL, an AUC(0-t) [4, 11] of 296 ± 40.8 ng·h/mL and a Cmax [4, 11] of 1490 ± 292 ng/mL. For the same compound, the clearance ([4]; intravenous, 2.4 mg/kg, rats, Clopidogrel group (7.5 mg·kg^-1 gavage daily 7 d), n = 8, read-out: CL (converted)) was 128 mL/min/kg, the MRT last [4, 11] was 12.6 ± 1.2 min and the MRT inf [4, 11] was 18.6 ± 6.6 min. The Vd [4, 11] was 3.71 ± 2.03 L/kg, the half-life [4, 11] was 21 ± 13.8 min and the AUC(0-inf) [4, 12] was 268 ± 35.5 ng·h/mL. The AUC(0-t) [4, 12] was 260 ± 35.1 ng·h/mL, the Cmax [4, 12] was 1550 ± 173 ng/mL and the clearance ([4]; intravenous, 2.4 mg/kg, rats, Control group (0.5% CMC gavage 7 d), n = 8, read-out: CL (converted)) was 152 mL/min/kg. It also gave an MRT last [4, 12] of 10.8 ± 0.6 min, an MRT inf [4, 12] of 13.2 ± 2.4 min and a Vd [4, 12] of 3.02 ± 0.72 L/kg. It also gave a half-life [4, 12] of 13.8 ± 3 min, an AUC(0-inf) [4, 13] of 315 ± 23.4 ng·h/mL and an AUC(0-t) [4, 13] of 299 ± 17.6 ng·h/mL. It also gave a Cmax [4, 13] of 1490 ± 200 ng/mL.
